Here are results for one compound from publication PMC2228077, “The bioavailability of oral GI147211 (GG211), a new topoisomerase I inhibitor” (British Journal of Cancer, 1997).

Counter-ions that a name gives are not always drawn.

The subject of one series is solid tumour. As to the kind of experiment: Tumour response (WHO criteria) in patients. The series is classed as in vivo, human. Conditions: 17 evaluable patients. An excerpt: British Journal of Cancer (1997) 76(7), 946-951 ? 1997 Cancer Research Campaign The bloavailability of oral Gil 47211 (GG21 1), a new topoisomerase I inhibitor CJH Gerrits', JHM Schellens', GJ Creemers', P Wissel2, ASTh Planting', JF Pritchard2, S DePee2, M de Boer-Dennert', M Harteveld' and J Verweij' 'Department of Medical Oncology, Rotterdam Cancer Institute (Daniel den Hoed Kliniek) and University Hospital, The Netherlands; 2Glaxo Wellcome, Department of Pharmacokinetics, NC, USA Summary Topoisomerase I inhibitors are new compounds of interest for cancer chemotherapy. We performed a study with Gl147211, a new semisynthetic camptothecin analogue, to determine the absolute bioavailability of the drug given orally. […] Gi147211 was given orally on day 1 and as a 30-min infusion daily on days 2-5. The treatment course was repeated every 3 weeks. In subsequent patient cohorts, the dose of the oral formulation was escalated from 1.5 mg m-2 to 6.0 mg m-2; the dose for i.v. administration was fixed at 1.2 mg m-2. Plasma pharmacokinetics was performed on day 1 and 2 of the first course and on day 1 of the second course using a validated high-performance liquid chromatographic assay. […]

Series [1] concerns xenografts of human cancers, including HT-29 and SW-48 colon, PC-3 prostate, MX-1 breast, H460 lung, SKOV3 ovarian and KB epidermoid carcinomas. Also noted: method as in Emerson et al, 1993, 1995. The following applies: ref Emerson et al, 1993, 1995; cited from earlier work.
The conditions of series [2]: intravenous route; cited from earlier work.
On the set-up of series [3]: method as in Gerrits et al, 1996. Conditions: i.v. daily x5 every 3 weeks; ref Gerrits et al, 1996; cited from earlier work.
For series [4] the following is noted: dog, in vivo; cited from earlier work.

For `CC[C@@]1(O)C(=O)OCc2c1cc1n(c2=O)Cc2c-1nc1cc3c(cc1c2CN1CCN(C)CC1)OCCO3` [GI147211, 7-(methylpiperazinomethylene)-10,11-ethylenedioxy-20(S)-camptothecin dihydrochloride], the “best response to treatment” value with solid tumour is listed as “stable disease in seven patients”. Further, the “activity against xenografts of human cancers” value in series [1] is on record as “significant cytotoxicity”. Besides, the “main toxicity in animal toxicology studies” value in series [2] is “myelosuppression was the main toxicity and was dose limiting”. Further, the main toxicity entry in series [3] is “myelosuppression”. The absolute bioavailability in series [4] is on record as 16%.
